Measured values reported in patent publication EP0728482A2, “Use of hcp specific compounds to enhance erythropoiesis” (SMITHKLINE BEECHAM CORPORATION, priority 1995, dated 1996).

Molecular target: T1, human lck SH2 domain (Homo sapiens, UniProt P06239)
T1 construct: made in house; host or cells: E. coli AR120
Assay: ELISA-based SH2 domain / pY peptide binding assay, lck SH2 domain
Details: inhibition of binding of 0.1 uM biotinylated pY peptide to SH2 domain fusion protein
Procedure: The inhibitory activity of compounds at the different human SH2 domains was determined in vitro using SH2 domains expressed as fusion proteins in E. coli. The SH2 domains used herein were the human forms of the src SH2 domain, Grb2 SH2 domain, lck SH2 domain, fyn SH2 domain, SH-PTP2 SH2 domain, p85 SH2 domain and hcp SH2 domain.
The fusion proteins containing the src, lck and hcp SH2 domains were expressed as the general sequence: DET1-DET2-spacer-ek-SH2, where DET1, DET2, spacer, ek and SH2 are as described below. DET1 ("defined epitope tag 1") (SEQ ID NO: 1) is an 11 amino acid sequence found in the Human Immunodeficiency Virus Type 1 (HIV-1) envelope protein gp120 (or gp160). Monoclonal antibodies to various epitopes of HIV-1 gp120 (or gp 160) are known in the art, see, for example U.S. Patent 5,166,050. One preferred example is monoclonal antibody 178.1 (see, e.g., Thiriart et al., J. Immunol., 143:1832-1836 (1989)), which was prepared by immunization of mice with a yeast-expressed HIV-1 gp160 molecule from strain BH10 (Ratner et al., Nature, 313:277-284 (1985)). This tag was used for detection of expression (by Western blot), for purification of the protein (by affinity chromatography), and for configuring assays in which the fusion protein was captured or immobilized using the 178.1 antibody. […]

T1 sequence (P06239 127-224 limits assumed): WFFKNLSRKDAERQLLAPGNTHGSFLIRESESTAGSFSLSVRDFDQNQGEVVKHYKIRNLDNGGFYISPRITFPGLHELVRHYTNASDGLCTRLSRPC

## CCCCCCNC(=O)[C@H]1CC[C@H](CNC(=O)c2ccc(C(=O)c3ccc(C(=O)O)cc3)cc2)CC1 [Compound 6, 4-carboxy-benzophenone-4-carboxamido-trans-4-methyl-cyclohexyl-N-hexyl carboxamide]
  IC50: > 300 µM
